Results reported in article PMC12289066, “Identification of glutathione transferase (GST P1) inhibitors via a high-throughput screening assay and implications as alternative treatment options for breast cancers” (PLOS One, 2025).
Where a name gives a salt, the structure may show the parent alone. Read-outs that look alike come from different tables or passages of the source.

Legend:
GST P1-1 [1] = molecular target: T1, GST P1-1 (Homo sapiens, UniProt P09211); assay: Determination of IC50 for GST P1-1 enzyme (dose-response / reconfirmation assay); assay type: biochemical
T1 construct: purchased Sigma-Aldrich
T1 sequence (P09211 2-210 limits assumed): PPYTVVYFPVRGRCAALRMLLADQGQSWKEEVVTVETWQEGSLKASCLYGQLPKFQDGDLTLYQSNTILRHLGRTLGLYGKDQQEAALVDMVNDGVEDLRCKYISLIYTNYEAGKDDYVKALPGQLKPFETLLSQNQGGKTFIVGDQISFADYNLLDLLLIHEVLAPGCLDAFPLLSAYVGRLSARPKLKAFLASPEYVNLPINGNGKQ
Description: (§1) Each drug compound was added to the respective well at a volume of 80 nL of 10 mM stock solution in DMSO, yielding a final compound concentration of 10 μM and a final DMSO concentration of 0.1%. Each plate’s first and last two columns were used as negative (no compound added – 80 nL per well of DMSO) and positive (80 nL of EA added with a final concentration of 50 μM) controls, respectively. The Gyger Certus Flex dispenser was set up using a freshly prepared 1 mM of GSH and 20 nM of GST P1-1, pH 7.4, in one syringe and 8 mM CDNB solution in pure ethanol in the other syringe. Into each well 80 μL of GST-GSH solution was dispensed and incubated at 25°C for 20 minutes before the reaction was initiated by the addition of 4 μL of CDNB solution. The plates were incubated for 2 h in the dark at 25°C and then the absorbance was of each well recorded on a BioTek Synergy NEO HTS multimode plate reader (Agilent®) at a wavelength of 340 nm.
The IC50 of the GST P1-1 enzyme was determined for the 80 drug compounds with the highest score in the GST P1-1 screening assay. The assay conditions were used for the screening assay and each drug compound was tested at 8 different concentrations (μM) starting at 30 µM final assay concentration with a half-log dilution and 2 replicates per concentration.

GST P1-1 [2] = molecular target: T1, GST P1-1; assay: High-throughput GST P1-1 inhibition assay (384-well screen, CDNB/GSH); assay type: biochemical; conditions: compound 10 μM; score 0 = negative control (DMSO), 1 = positive control (EA 50 μM); average of duplicate
Description: as §1
The z’factor was calculated for each plate according to Zhang et al.. The Z-factor is a dimensionless, simple statistical characteristic for each HTS assay. This provides a valuable tool for the comparison and assessment of the quality of assays, and can be utilized in assay optimization and validation. For each plate, the concentration of product was normalized by assigning a score of 0 (0%) to the negative control (average of maximal concentration of product measured in the presence of enzyme without any inhibitor) and a score of 1 (100%) was assigned to the positive control (average minimal concentration of product measured in the presence of enzyme with the reference inhibitor, i.e., EA). The experiment was performed in duplicate and the score for each drug compound was calculated as an average ± standard deviation. […] An internal laboratory information management system (LIMS) was used for basic data processing, management, visualization, and statistical hit validation.

GST P1-1 [3] = molecular target: T1, GST P1-1; assay: Determination of inhibitor binding mechanism (kinetic GST P1-1 activity assay); assay type: biochemical; conditions: from Km and Vmax versus reaction without inhibitor
Description: The GST P1-1 concentration used in the assays was 0.02 U mL^-1.
1 mM GSH final concentration was used. The GST P1-1 was pre-incubated with the GSH for 20 minutes at room temperature before the addition of 12.5 μL of 4 mM solution of CDNB. The reaction rate was recorded against time using UV/VIS spectrophotometer (SpectraMax M5e from Molecular devices) at […].
The drug compounds’ inhibition mechanism was investigated using the kinetic GST P1-1 activity assay. Concentrations of CDNB ranged from 0–40 mM with the drug solution at a constant concentration of 5 μM. Experiments were performed in duplicate.
The Michaelis-Menten constant, Km, and […] Vmax were calculated using GraphPad Prism 9 software. To identify the type of inhibition the Michaelis-Menten equation was applied (Eq. 1): […]
where v0 is the initial velocity of the reaction, Vmax is the maximum velocity achieved by the reaction at maximum concentrations of substrate, [S] is the concentration of substrate, and Km is the substrate concentration at which the reaction velocity is half of the Vmax (Michaelis-Menten constant). The Michaelis-Menten equation predicts a hyperbolic relationship between initial velocity and substrate concentration, describing the kinetic behavior of enzymes. Evaluating the differences in Km and Vmax compared with the reaction without an inhibitor allows the competition type of an inhibitor to be identified. Competitive inhibitors present an increase in the Km and with Vmax unaffected. Non-competitive inhibitors present a […] Vmax.

MDA-MB-231 cells = assay: MTT cytotoxicity assay, MDA-MB-231; assay type: cell-based, human
Description: (§2) L929, MCF-7, and MDA-MB-231 cell lines were cultured in DMEM GlutaMAX media containing 10% heat-inactivated FBS and 1% (v/v) penicillin-streptomycin at 37°C and CO2 (5%). Cytotoxicity was determined using a 3-(4,5-dimethyl 2-thiazolyl)-2,5-diphenyl-2H-tetrazolium bromide (MTT) assay. 100 μL aliquots and approximately 50’000 cells/well were added to each well of flat-bottomed 96-well plates and incubated for 24 h in a humidified chamber at 37°C under saturated air with a 5% CO2 atmosphere. Stock solutions of 10 mM drug compounds were prepared in DMSO and were sequentially diluted with the cell culture buffer to give a final DMSO concentration of 0.5%. The solutions were added to the 96-well plates in 100 μL aliquots and 100 μL of buffer was added as a control to give a final drug compound concentration range of 0 − 100 μM. The plates were incubated for a further 72 h under the same conditions as before. MTT (10 μL, 5 mg/mL in Dulbecco’s phosphate-buffered saline) was added to each well and the plates were incubated for a further 3 h under the same conditions as before. The culture medium was aspirated from each well and the purple formazan crystals, formed by the mitochondrial dehydrogenase activity of vital cells, were dissolved in 100 μL DMSO. The absorbance of the resulting solutions was measured at 570 and 630 nm using a SpectraMax M5e multimode microplate reader and SoftMax Pro software, version 6.2.2. As the absorbance is directly proportional to the number of surviving cells, the percentage of surviving cells was calculated from the absorbance of wells relative to the control. The reported IC50 values are based on the mean from four independent experiments, each comprising three replicates per concentration.

L929 cells = assay: MTT cytotoxicity assay, L929; assay type: cell-based, mouse; conditions: for selectivity towards the breast cancer cell lines: MCF-7 and MDA-MB-231 versus non-tumorigenic L929, 72 h MTT; for IC50: MTT, 72 h incubation, read-out: IC50 (average ± standard deviation) L929
Description: as §2, with “Cytotoxicity” for “L929, MCF-7, and MDA-MB-231 cell lines were cultured in DMEM GlutaMAX media containing 10% heat-inactivated FBS and 1% (v/v) penicillin-streptomycin at 37°C and CO2 (5%). Cytotoxicity”, “Stock solutions of 10 mM drug compounds were prepared in DMSO and were sequentially diluted with the cell culture buffer to give a final DMSO concentration of 0.5%. The solutions were added to the 96-well plates in 100 μL aliquots and 100 μL of buffer was added as a control to give a final drug compound concentration range of 0 − 100 μM.” left out

MCF-7 cells = assay: MTT cytotoxicity assay, MCF-7; assay type: cell-based, human
Description: as §2

[4] = Table 2, rounded values, read-out: IC50 GSTP1 enzymatic reaction
[5] = reconfirmation assay, Table S2, read-out: IC50 GSTP1
[6] = Homo sapiens, MDA-MB-231, MTT, 72 h incubation, read-out: IC50 (average ± standard deviation) MDA-MB-231
[7] = Homo sapiens, MDA-MB-231, compound alone, read-out: Concentration IC50 isolated (MDA-MB-231 cell line)
[8] = Homo sapiens, MCF7, MTT, 72 h incubation, read-out: IC50 (average ± standard deviation) MCF-7
[9] = Homo sapiens, MCF7, compound alone, read-out: Concentration IC50 isolated (MCF-7 cell line)
[10] = MTT, 72 h incubation, read-out: IC50 (average ± standard deviation) MDA-MB-231
[11] = MTT, 72 h incubation, read-out: IC50 (average ± standard deviation) MCF-7

Structure (SMILES)	IC50 (GST P1-1 [1]; [4]) [µM]	Hill Slope (dose-response curve) (GST P1-1 [1]; reconfirmation assay)	IC50 (GST P1-1 [1]; [5]) [µM]	Score (GST P1-1 [2])	Inhibition mechanism (GST P1-1 [3])	IC50 (MDA-MB-231 cells; [6]) [µM]	IC50 (MDA-MB-231 cells; [7]) [µM]	selectivity towards the breast cancer cell lines (L929 cells)	IC50 (L929 cells; Mus musculus, L929) [µM]	IC50 (MCF-7 cells; [8]) [µM]	IC50 (MCF-7 cells; [9]) [µM]	IC50 (MDA-MB-231 cells; [10]) [µM]	IC50 (L929 cells) [µM]	IC50 (MCF-7 cells; [11]) [µM]
CCc1ccc(/C=C2/SC(=S)NC2=O)cc1 [10058-F4]	2.8	1.37	2.75	0.731	Non-competitive	15 ± 4	15	highly selective	> 100	14 ± 2	14			
CC(C)N(CCC(=O)c1ccc2ccccc2c1)Cc1ccccc1 [ZM 39923 (hydrochloride)]	1.5	1.56		0.788	Competitive	2.6 ± 0.1	2.6	reasonable degree of selectivity	8.2 ± 0.6	4.3 ± 0.1	4.3			
O=C(O)[C@]1(Cc2cccc(Nc3nccs3)n2)CC[C@@H](Oc2cccc(Cl)c2F)CC1 [MK-5108]	3.2	13.6		0.933		> 100			2.2 ± 0.5	3.4 ± 0.8				
O=C1NC(=O)/C(=C/c2ccc(-c3ccc(F)cc3O)o2)S1 [AS252424]	0.6	1.95	0.61	0.907								91 ± 3	24 ± 2	38 ± 2
CC(C)c1cc(C(C)C)c(CC(=O)NS(=O)(=O)Oc2c(C(C)C)cccc2C(C)C)c(C(C)C)c1 [Avasimibe]	0.4		0.37	0.835		16 ± 1			13 ± 1	12 ± 1				
Cc1cc(O)c2c(=O)c3c(O)cc(O)c4c5c(O)cc(O)c6c(=O)c7c(O)cc(C)c8c1c2c(c34)c(c78)c65 [Hypericin]	0.1	11.6		0.774		26 ± 3			19 ± 1	8 ± 1				
C[C@H]1COC2=C1C(=O)C(=O)c1c2ccc2c1CCCC2(C)C [Cryptotanshinone 97.0%, Cryptotanshinone]	8.9	0.85		1.037	Non-competitive	2.9 ± 0.3	2.9	reasonable degree of selectivity	4.4 ± 0.3	0.29 ± 0.04	0.29			
C[C@@H]1Cc2c([nH]c3ccccc23)[C@@H](c2c(F)cc(/C=C/C(=O)O)cc2F)N1CC(C)(C)F [AZD9496]	2.1	2.23	2.05	0.806		47 ± 5			36 ± 4	14 ± 1				
O=C(O)c1ccc2cc(-c3ccc(O)c(C45CC6CC(CC(C6)C4)C5)c3)ccc2c1 [CD437]	0.3	11.6	0.32	0.939								0.74 ± 0.07	0.24 ± 0.03	0.51 ± 0.05
O=C1C(=Cc2cccnc2)C(=O)c2ccccc21 [PRT 4165]	1.3	1.2		0.890	Non-competitive	27 ± 6	27	reasonable degree of selectivity	> 100	59 ± 7	59			
CCCCCCCCCCCC1=C(O)C(=O)C=C(O)C1=O [Embelin]	0.6	1.46	0.64	0.935		12 ± 1			14 ± 1	11 ± 1				
O=C(O)c1ccccc1Nc1ccc(CCc2ccc(Cl)c(Cl)c2)cc1 [PD-118057]	0.3	1.8	0.33	0.858								> 100	> 100	41 ± 4
O=C1CC(=O)c2c(Cl)c(Cl)c(Cl)c(Cl)c21 [TCID]	0.9	1.16		1.094								> 100	> 100	> 100
O=C(O)c1c(Sc2ccccc2)c2cc(Cl)ccc2n1Cc1ccc(Cl)cc1 [nTZDpa]	0.95	1.7		0.909								95 ± 4	36 ± 3	39 ± 2
